Results taken from patent US20090258883A1, “1H-Indole-Pyridinecarboxamide and 1H-Indole-Piperidinecarboxamide Compounds” (LES LABORATOIRES SERVIER, priority 2005, published 2009).
Marks after values point to notes of the source that are not given here.

Test system: not given
Experiment: not given
Conditions: not given

melting point [°C]	Structure (SMILES)
134	CN1CC[C@H](C(=O)Nn2ccc3ccccc32)[C@H](c2ccc(F)cc2)C1 [Example 38, (3R,4S)-3-(4-Fluorophenyl)-N-(1H-indol-1-yl)-1-methylpiperidine-4-carboxamide]

Test system: tyrosine hydroxylase (TH) protein
Experiment: Induction of tyrosine hydroxylase (TH) in LC, SN and VTA of the mouse brain
Assay type: in vivo, Balb/C mouse
Conditions: LC section 1 (posterior-to-anterior), i.p. 20 mg/kg, three days after single injection, relative to mean value of control group
Text: A search is made among the compounds for those which are capable of bringing about an increase in the tyrosine hydroxylase (TH) protein in the locus coeruleus (LC), substantia nigra (SN) and ventral tegmental area (VTA) of the brain of the Balb/C mouse. The animals used are consanguinal male mice of the pure Balb/C strain (Charles River Laboratories) aged 6 weeks at the time of treatment.
The mice are given a single injection, by the intraperitoneal route, of the compound under test, dissolved in 0.04M HCl solution (corresponding control: 0.04M HCl), if the compound is sufficiently soluble, or in olive oil 90%/DMSO 10% (corresponding control: olive oil 90%/DMSO 10%) for compounds that are insoluble in an aqueous medium. The volume injected is 100 μl. The test groups comprise 10 animals.
Three days after the injection of each compound, all the animals are sacrificed by decapitation. The brains are removed and then frozen in an isopentane solution at −30° C. for 45 seconds and subsequently stored at −80° C.
Serial coronal sections 20 microns thick are then taken using a cryomicrotome. Each structure of interest is then sampled along the posterior-anterior axis of the brain by taking sections at 80-micron spacings in the case of the LC and at 80- or 160-micron spacings in the case of the VTA and SN. The limits of those structures are those described in the atlas of Franklin and Paxinos. The total proteins of each of those sections are transferred by direct collection of the sections to a nitrocellulose filter (Millipore). The amounts of TH present in each sample are measured by immunochemistry, fluorimetric detection and image analysis.

Structure (SMILES)	amount of TH in LC section 1
CN(C)CCN1CCCC(C(=O)Nn2ccc3ccccc32)C1 (stereo not shown) [Example 22, 1-[2-(Dimethylamino)ethyl]-N-(1H-indol-1-yl)-3-piperidinecarboxamide]	79%
O=C(Nn1ccc2ccccc21)C1CCCN(CCN2CCCCC2)C1 (stereo not shown) [Example 24, N-(1H-indol-1-yl)-1-[2-(1-piperidyl)ethyl]-3-piperidinecarboxamide]	165* %
O=C(Nn1ccc2ccccc21)C1CCCN(CCN2CCN(CCO)CC2)C1 (stereo not shown) [Example 26, 1-{2-[4-(2-Hydroxyethyl)-1-piperazinyl]ethyl}-N-(1H-indol-1-yl)-3-piperidinecarboxamide]	152* %

Same assay, conditions: LC section 2, i.p. 20 mg/kg, three days after single injection, relative to mean value of control group

Structure (SMILES)	amount of TH in LC section 2
CN(C)CCN1CCCC(C(=O)Nn2ccc3ccccc32)C1 (stereo not shown) [Example 22, 1-[2-(Dimethylamino)ethyl]-N-(1H-indol-1-yl)-3-piperidinecarboxamide]	101%
O=C(Nn1ccc2ccccc21)C1CCCN(CCN2CCCCC2)C1 (stereo not shown) [Example 24, N-(1H-indol-1-yl)-1-[2-(1-piperidyl)ethyl]-3-piperidinecarboxamide]	157* %
O=C(Nn1ccc2ccccc21)C1CCCN(CCN2CCN(CCO)CC2)C1 (stereo not shown) [Example 26, 1-{2-[4-(2-Hydroxyethyl)-1-piperazinyl]ethyl}-N-(1H-indol-1-yl)-3-piperidinecarboxamide]	98%

Same assay, conditions: LC section 3, i.p. 20 mg/kg, three days after single injection, relative to mean value of control group

Structure (SMILES)	amount of TH in LC section 3
CN(C)CCN1CCCC(C(=O)Nn2ccc3ccccc32)C1 (stereo not shown) [Example 22, 1-[2-(Dimethylamino)ethyl]-N-(1H-indol-1-yl)-3-piperidinecarboxamide]	112%
O=C(Nn1ccc2ccccc21)C1CCCN(CCN2CCCCC2)C1 (stereo not shown) [Example 24, N-(1H-indol-1-yl)-1-[2-(1-piperidyl)ethyl]-3-piperidinecarboxamide]	120%
O=C(Nn1ccc2ccccc21)C1CCCN(CCN2CCN(CCO)CC2)C1 (stereo not shown) [Example 26, 1-{2-[4-(2-Hydroxyethyl)-1-piperazinyl]ethyl}-N-(1H-indol-1-yl)-3-piperidinecarboxamide]	136** %

Same assay, conditions: LC section 4, i.p. 20 mg/kg, three days after single injection, relative to mean value of control group

Structure (SMILES)	amount of TH in LC section 4 [%]
CN(C)CCN1CCCC(C(=O)Nn2ccc3ccccc32)C1 (stereo not shown) [Example 22, 1-[2-(Dimethylamino)ethyl]-N-(1H-indol-1-yl)-3-piperidinecarboxamide]	98
O=C(Nn1ccc2ccccc21)C1CCCN(CCN2CCCCC2)C1 (stereo not shown) [Example 24, N-(1H-indol-1-yl)-1-[2-(1-piperidyl)ethyl]-3-piperidinecarboxamide]	127
O=C(Nn1ccc2ccccc21)C1CCCN(CCN2CCN(CCO)CC2)C1 (stereo not shown) [Example 26, 1-{2-[4-(2-Hydroxyethyl)-1-piperazinyl]ethyl}-N-(1H-indol-1-yl)-3-piperidinecarboxamide]	107

Same assay, conditions: LC section 5, i.p. 20 mg/kg, three days after single injection, relative to mean value of control group

Structure (SMILES)	amount of TH in LC section 5
CN(C)CCN1CCCC(C(=O)Nn2ccc3ccccc32)C1 (stereo not shown) [Example 22, 1-[2-(Dimethylamino)ethyl]-N-(1H-indol-1-yl)-3-piperidinecarboxamide]	108%
O=C(Nn1ccc2ccccc21)C1CCCN(CCN2CCCCC2)C1 (stereo not shown) [Example 24, N-(1H-indol-1-yl)-1-[2-(1-piperidyl)ethyl]-3-piperidinecarboxamide]	145* %
O=C(Nn1ccc2ccccc21)C1CCCN(CCN2CCN(CCO)CC2)C1 (stereo not shown) [Example 26, 1-{2-[4-(2-Hydroxyethyl)-1-piperazinyl]ethyl}-N-(1H-indol-1-yl)-3-piperidinecarboxamide]	154** %

Same assay, conditions: LC section 6, i.p. 20 mg/kg, three days after single injection, relative to mean value of control group

Structure (SMILES)	amount of TH in LC section 6
CN(C)CCN1CCCC(C(=O)Nn2ccc3ccccc32)C1 (stereo not shown) [Example 22, 1-[2-(Dimethylamino)ethyl]-N-(1H-indol-1-yl)-3-piperidinecarboxamide]	113%
O=C(Nn1ccc2ccccc21)C1CCCN(CCN2CCCCC2)C1 (stereo not shown) [Example 24, N-(1H-indol-1-yl)-1-[2-(1-piperidyl)ethyl]-3-piperidinecarboxamide]	131** %
O=C(Nn1ccc2ccccc21)C1CCCN(CCN2CCN(CCO)CC2)C1 (stereo not shown) [Example 26, 1-{2-[4-(2-Hydroxyethyl)-1-piperazinyl]ethyl}-N-(1H-indol-1-yl)-3-piperidinecarboxamide]	133* %

Same assay, conditions: LC section 7, i.p. 20 mg/kg, three days after single injection, relative to mean value of control group

Structure (SMILES)	amount of TH in LC section 7
CN(C)CCN1CCCC(C(=O)Nn2ccc3ccccc32)C1 (stereo not shown) [Example 22, 1-[2-(Dimethylamino)ethyl]-N-(1H-indol-1-yl)-3-piperidinecarboxamide]	146** %
O=C(Nn1ccc2ccccc21)C1CCCN(CCN2CCCCC2)C1 (stereo not shown) [Example 24, N-(1H-indol-1-yl)-1-[2-(1-piperidyl)ethyl]-3-piperidinecarboxamide]	139* %
O=C(Nn1ccc2ccccc21)C1CCCN(CCN2CCN(CCO)CC2)C1 (stereo not shown) [Example 26, 1-{2-[4-(2-Hydroxyethyl)-1-piperazinyl]ethyl}-N-(1H-indol-1-yl)-3-piperidinecarboxamide]	127* %

Same assay, conditions: LC section 8, i.p. 20 mg/kg, three days after single injection, relative to mean value of control group

Structure (SMILES)	amount of TH in LC section 8 [%]
CN(C)CCN1CCCC(C(=O)Nn2ccc3ccccc32)C1 (stereo not shown) [Example 22, 1-[2-(Dimethylamino)ethyl]-N-(1H-indol-1-yl)-3-piperidinecarboxamide]	120
O=C(Nn1ccc2ccccc21)C1CCCN(CCN2CCCCC2)C1 (stereo not shown) [Example 24, N-(1H-indol-1-yl)-1-[2-(1-piperidyl)ethyl]-3-piperidinecarboxamide]	116
O=C(Nn1ccc2ccccc21)C1CCCN(CCN2CCN(CCO)CC2)C1 (stereo not shown) [Example 26, 1-{2-[4-(2-Hydroxyethyl)-1-piperazinyl]ethyl}-N-(1H-indol-1-yl)-3-piperidinecarboxamide]	96

Same assay, conditions: LC section 9, i.p. 20 mg/kg, three days after single injection, relative to mean value of control group

Structure (SMILES)	amount of TH in LC section 9
CN(C)CCN1CCCC(C(=O)Nn2ccc3ccccc32)C1 (stereo not shown) [Example 22, 1-[2-(Dimethylamino)ethyl]-N-(1H-indol-1-yl)-3-piperidinecarboxamide]	135* %
O=C(Nn1ccc2ccccc21)C1CCCN(CCN2CCCCC2)C1 (stereo not shown) [Example 24, N-(1H-indol-1-yl)-1-[2-(1-piperidyl)ethyl]-3-piperidinecarboxamide]	139%
O=C(Nn1ccc2ccccc21)C1CCCN(CCN2CCN(CCO)CC2)C1 (stereo not shown) [Example 26, 1-{2-[4-(2-Hydroxyethyl)-1-piperazinyl]ethyl}-N-(1H-indol-1-yl)-3-piperidinecarboxamide]	132%

Same assay, conditions: LC section 10, i.p. 20 mg/kg, three days after single injection, relative to mean value of control group

Structure (SMILES)	amount of TH in LC section 10
CN(C)CCN1CCCC(C(=O)Nn2ccc3ccccc32)C1 (stereo not shown) [Example 22, 1-[2-(Dimethylamino)ethyl]-N-(1H-indol-1-yl)-3-piperidinecarboxamide]	179** %
O=C(Nn1ccc2ccccc21)C1CCCN(CCN2CCCCC2)C1 (stereo not shown) [Example 24, N-(1H-indol-1-yl)-1-[2-(1-piperidyl)ethyl]-3-piperidinecarboxamide]	96%
O=C(Nn1ccc2ccccc21)C1CCCN(CCN2CCN(CCO)CC2)C1 (stereo not shown) [Example 26, 1-{2-[4-(2-Hydroxyethyl)-1-piperazinyl]ethyl}-N-(1H-indol-1-yl)-3-piperidinecarboxamide]	110%

Same assay, conditions: LC section 11, i.p. 20 mg/kg, three days after single injection, relative to mean value of control group

Structure (SMILES)	amount of TH in LC section 11
CN(C)CCN1CCCC(C(=O)Nn2ccc3ccccc32)C1 (stereo not shown) [Example 22, 1-[2-(Dimethylamino)ethyl]-N-(1H-indol-1-yl)-3-piperidinecarboxamide]	145* %
O=C(Nn1ccc2ccccc21)C1CCCN(CCN2CCCCC2)C1 (stereo not shown) [Example 24, N-(1H-indol-1-yl)-1-[2-(1-piperidyl)ethyl]-3-piperidinecarboxamide]	94%
O=C(Nn1ccc2ccccc21)C1CCCN(CCN2CCN(CCO)CC2)C1 (stereo not shown) [Example 26, 1-{2-[4-(2-Hydroxyethyl)-1-piperazinyl]ethyl}-N-(1H-indol-1-yl)-3-piperidinecarboxamide]	89%

Same assay, conditions: LC total, i.p. 20 mg/kg, three days after single injection, relative to mean value of control group

Structure (SMILES)	amount of TH, LC, total
CN(C)CCN1CCCC(C(=O)Nn2ccc3ccccc32)C1 (stereo not shown) [Example 22, 1-[2-(Dimethylamino)ethyl]-N-(1H-indol-1-yl)-3-piperidinecarboxamide]	119** %
O=C(Nn1ccc2ccccc21)C1CCCN(CCN2CCCCC2)C1 (stereo not shown) [Example 24, N-(1H-indol-1-yl)-1-[2-(1-piperidyl)ethyl]-3-piperidinecarboxamide]	129** %
O=C(Nn1ccc2ccccc21)C1CCCN(CCN2CCN(CCO)CC2)C1 (stereo not shown) [Example 26, 1-{2-[4-(2-Hydroxyethyl)-1-piperazinyl]ethyl}-N-(1H-indol-1-yl)-3-piperidinecarboxamide]	121** %

Same assay, conditions: substantia nigra, single i.p. injection, relative to mean value of control group

Structure (SMILES)	TH induction in the SN [%]
CN1CCC=C(C(=O)NN2CCc3ccccc32)C1 [Example 15, N-(2,3-dihydro-1H-indol-1-yl)-1-methyl-1,2,5,6-tetrahydropyridine-3-carboxamide]	91

Same assay, conditions: ventral tegmental area, single i.p. injection, relative to mean value of control group

Structure (SMILES)	TH induction in the VTA
CN1CCC=C(C(=O)NN2CCc3ccccc32)C1 [Example 15, N-(2,3-dihydro-1H-indol-1-yl)-1-methyl-1,2,5,6-tetrahydropyridine-3-carboxamide]	88* %

Test system: confluent endothelial cells from bovine capillaries
Experiment: Predicted crossing of the blood-brain barrier (BBB)
Assay type: in vitro ADME
Parameters: key: high; intermediate; low
Conditions: 20 μM in upper compartment, filter with bovine capillary endothelial cells, 10-60 minutes, LC-MS-MS
Procedure: The substances are incubated at 20 μM in the upper compartment of a double container, the upper compartment being separated from the lower compartment either solely by a polycarbonate filter or by the same filter covered with confluent endothelial cells from bovine capillaries. Evaluation of the permeability kinetics is carried out by means of LC-MS-MS quantification of the unchanged substance in the lower compartment after 10, 20, 30, 40 and 60 minutes.
The results are given in the form of the categories: high, intermediate, low.

degree of crossing of the BBB (category)	Structure (SMILES)
high	O=C(Nn1ccc2ccccc21)C1CCCN(CCN2CCCCC2)C1 (stereo not shown) [Example 24, N-(1H-indol-1-yl)-1-[2-(1-piperidyl)ethyl]-3-piperidinecarboxamide]
